According to patent publication US10351522B2, “Sulfonamide derivative and pharmaceutically acceptable acid addition salt thereof” (UNIVERSITY OF TSUKUBA, priority 2015, dated 2019):

Columns and labels:
[1] = target: T1, human OX1R (Homo sapiens, UniProt O43613); assay: Agonist activity against OX1R: intracellular calcium (Fura-2AM, FDSS7000) in CHOOX1R cells; assay type: cell-based; settings: relative to orexin-A as full agonist (100%)
T1 construct: expressed in transfected cells; host or cells: CHO (Chinese hamster ovary) cells, line CHOOX1R, co-expressing NFAT-luciferase
T1 sequence (O43613 1-425): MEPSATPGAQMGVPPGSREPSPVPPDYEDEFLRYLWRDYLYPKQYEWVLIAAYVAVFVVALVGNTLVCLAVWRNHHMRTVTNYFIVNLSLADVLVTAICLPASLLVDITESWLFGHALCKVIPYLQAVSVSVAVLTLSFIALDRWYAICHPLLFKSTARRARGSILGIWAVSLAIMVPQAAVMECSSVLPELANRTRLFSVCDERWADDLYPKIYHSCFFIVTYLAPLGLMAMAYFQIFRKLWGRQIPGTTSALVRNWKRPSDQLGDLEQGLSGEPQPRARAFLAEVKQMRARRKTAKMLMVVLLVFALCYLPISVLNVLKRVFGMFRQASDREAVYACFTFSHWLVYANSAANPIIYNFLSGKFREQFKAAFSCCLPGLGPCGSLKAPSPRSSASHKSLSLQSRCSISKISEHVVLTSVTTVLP
Procedure, shortened: (§1)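 Response is agonist activity at 0.1, 1.0 or 10 μM compound as a percentage of the orexin-A full-agonist maximum, taken from 340/380 nm Fura-2 ratio changes. Each cell line is CHO constitutively expressing human OX1R or OX2R with NFAT-luciferase, dye-loaded 60 min with 5 μM Fura-2AM; compound range 10^−7–10^−5 M, 1% DMSO.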

[2] = target: T2, human OX2R (Homo sapiens, UniProt O43614); assay: Agonist activity against OX2R: intracellular calcium (Fura-2AM, FDSS7000) in CHOOX2R cells; assay type: cell-based; settings: relative to orexin-A as full agonist (100%)
T2 construct: expressed in transfected cells; host or cells: CHO (Chinese hamster ovary) cells, line CHOOX2R, co-expressing NFAT-luciferase
T2 sequence (O43614 1-444): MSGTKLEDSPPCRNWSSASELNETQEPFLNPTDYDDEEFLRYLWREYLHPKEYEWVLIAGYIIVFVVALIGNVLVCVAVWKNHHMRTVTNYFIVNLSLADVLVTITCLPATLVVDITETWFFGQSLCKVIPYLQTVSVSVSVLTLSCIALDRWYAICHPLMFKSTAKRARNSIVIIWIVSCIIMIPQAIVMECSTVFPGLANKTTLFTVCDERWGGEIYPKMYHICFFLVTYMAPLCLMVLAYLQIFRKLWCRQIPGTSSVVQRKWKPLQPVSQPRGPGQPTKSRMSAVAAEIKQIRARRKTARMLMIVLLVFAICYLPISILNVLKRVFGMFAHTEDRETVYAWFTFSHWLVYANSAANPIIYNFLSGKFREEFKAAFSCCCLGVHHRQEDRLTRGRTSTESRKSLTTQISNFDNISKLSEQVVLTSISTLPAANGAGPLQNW
Procedure, shortened: as §1

Structure (SMILES)	Response (%) OX1R ([1]; 0.1 μM test compound)	Response (%) OX1R ([1]; 1.0 μM test compound)	Response (%) OX1R ([1]; 10 μM test compound)	Response (%) OX2R ([2]; 0.1 μM test compound)	Response (%) OX2R ([2]; 1.0 μM test compound)	Response (%) OX2R ([2]; 10 μM test compound)	Emax at 0.1 µM ([1]; test compound 0.1 μM, read-out: Response (%) OX1R)	Emax at 1 µM ([1]; test compound 1.0 μM, read-out: Response (%) OX1R)	Emax at 10 µM ([1]; test compound 10 μM, read-out: Response (%) OX1R)	Response (%) OX2R ([2]; test compound 0.1 μM)	Response (%) OX2R ([2]; test compound 1.0 μM)	Response (%) OX2R ([2]; test compound 10 μM)	Response (%) OX1R ([1]; test compound 0.1 μM)	Response (%) OX1R ([1]; test compound 1.0 μM)	Response (%) OX1R ([1]; test compound 10 μM)
COC(=O)c1cccc(NC(=O)Nc2cccc(NS(=O)(=O)c3cc(-c4cccc(C(=O)N(C)C)c4)ccc3OC)c2)c1 [Example 45]	<5%	<5%	<5%	82%	97%	100%	–	–	–	–	–	–	–	–	–
COc1ccc(-c2cccc(C(=O)N(C)C)c2)cc1S(=O)(=O)Nc1cccc(Nc2ccc(C(=O)N(C)C)cc2)c1 [Example 34]	<5%	<5%	<5%	<5%	52%	95%	–	–	–	–	–	–	–	–	–
COc1ccccc1NC(=O)Nc1cccc(NS(=O)(=O)c2cc(-c3cccc(C(=O)N(C)C)c3)ccc2OC)c1 [Example 52]	<5%	<6%	<7%	43%	81%	78%	–	–	–	–	–	–	–	–	–
COc1ccc(-c2cccc(C(=O)N(C)C)c2)cc1S(=O)(=O)Nc1cccc(NC(=O)c2cccc3ccccc23)c1 [Example 10]	5%	6%	11%	14%	80%	98%	–	–	–	–	–	–	–	–	–
COc1ccc(C(=O)NCCCNC(=O)OC(C)(C)C)cc1S(=O)(=O)Nc1cccc(NC(=O)Nc2ccccc2N(C)C)c1 [Example 112, tert-butyl (3-(3-(N-(3-(3-(2-(dimethylamino)phenyl)ureido)phenyl)sulfamoyl)-4-methoxybenzamido)propyl)carbamate]	–	–	–	–	–	–	< 5%	< 5%	< 5%	<5%	26%	69%	–	–	–
COc1ccc(Nc2cccc(NS(=O)(=O)c3cc(-c4cccc(C(=O)N(C)C)c4)ccc3OC)c2)cc1 [Example 29]	<5%	<5%	<5%	11%	84%	81%	–	–	–	–	–	–	–	–	–
COc1ccc(-c2cccc(C(=O)N(C)C)c2)cc1S(=O)(=O)Nc1cccc(NS(=O)(=O)Nc2cccc(C)c2)c1 [Example 90]	–	–	–	–	–	–	–	–	–	<5%	56%	89%	<5%	<5%	<5%
COc1ccc(-c2cccc(C(=O)N(C)C)c2)cc1S(=O)(=O)Nc1cccc(NC(=O)Nc2ccccc2N(C)C)c1 [Example 41]	<5%	<5%	<5%	17%	93%	102%	–	–	–	–	–	–	–	–	–
CCN(Cc1cccnc1)C(=O)c1ccc(OC)c(S(=O)(=O)Nc2cccc(NC(=O)Nc3cccc(N(C)C)c3)c2)c1 [Example 102]	–	–	–	–	–	–	–	–	–	61%	97%	100%	<5%	<5%	<5%
COc1ccc(C(=O)N(C)C)cc1S(=O)(=O)Nc1cccc(NC(=O)Nc2ccccc2N(C)C)c1 [Example 114]	–	–	–	–	–	–	–	–	–	<5%	<5%	28%	<5%	<5%	<5%
COc1ccc(-c2cccc(C(=O)N(C)C)c2)cc1S(=O)(=O)Nc1cccc(NCc2ccccc2Br)c1 [Example 28]	<5%	<5%	<5%	6%	54%	81%	–	–	–	–	–	–	–	–	–
COc1ccc(-c2cccc(C(=O)N(C)C)c2)cc1S(=O)(=O)Nc1cccc(N2CCCN(c3cccc(N(C)C)c3)C2=O)c1 [Example 134]	–	–	–	–	–	–	–	–	–	101%	76%	75%	9%	13%	84%
CCN(Cc1ccccc1)C(=O)c1ccc(OC)c(S(=O)(=O)Nc2cccc(NC(=O)Nc3cccc(N(C)C)c3)c2)c1 [Example 101]	–	–	–	–	–	–	–	–	–	20%	89%	111%	<5%	<5%	<5%
COc1ccc(-c2cccc(C(=O)N(C)C)c2)cc1S(=O)(=O)Nc1cccc(Nc2ccc3c(c2)OCO3)c1 [Example 36]	<5%	<5%	10%	<5%	63%	93%	–	–	–	–	–	–	–	–	–
COc1ccc(-c2cccc(C(=O)N(C)C)c2)cc1S(=O)(=O)Nc1cccc(NC(=S)Nc2cccc(C)c2)c1 [Example 76]	<5%	20%	55%	93%	90%	89%	–	–	–	–	–	–	–	–	–
COc1ccc(-c2cccc(C(=O)N(C)C)c2)cc1S(=O)(=O)Nc1cccc(NC(=O)c2ccncc2)c1 [Example 4]	10%	8%	<5%	<5%	<5%	16%	–	–	–	–	–	–	–	–	–
COc1ccc(C(=O)NCCNC(=O)OC(C)(C)C)cc1S(=O)(=O)Nc1cccc(NC(=O)Nc2cccc(N(C)C)c2)c1 [Example 105]	–	–	–	–	–	–	–	–	–	9%	32%	92%	8%	7%	8%
COc1ccc(-c2cccc(C(=O)N(C)C)c2)cc1S(=O)(=O)Nc1cccc(NC(=O)Nc2cccs2)c1 [Example 67]	6%	8%	9%	15%	83%	103%	–	–	–	–	–	–	–	–	–
COc1ccc(-c2cccc(C(=O)N(C)C)c2)cc1S(=O)(=O)Nc1cccc(NC(=O)Nc2ccc(N(C)C)nc2)c1 [Example 71]	6%	<5%	10%	106%	97%	113%	–	–	–	–	–	–	–	–	–
COc1cccc(Nc2c(Nc3cccc(NS(=O)(=O)c4cc(-c5cccc(C(=O)N(C)C)c5)ccc4OC)c3)c(=O)c2=O)c1 [Example 82]	–	–	–	–	–	–	–	–	–	<5%	<5%	16%	<5%	<5%	7%
COc1ccc(C(=O)Nc2cccc(NS(=O)(=O)c3cc(-c4cccc(C(=O)N(C)C)c4)ccc3OC)c2)cc1 [Example 19]	<5%	<5%	<5%	<5%	10%	58%	–	–	–	–	–	–	–	–	–
COc1ccc(-c2cccc(C(=O)N(C)C)c2)cc1S(=O)(=O)Nc1cccc(NC(=O)OCc2ccccc2)c1 [Example 73]	6%	6%	<5%	25%	49%	11%	–	–	–	–	–	–	–	–	–
COc1ccc(-c2cccc(C(=O)N(C)C)c2)cc1S(=O)(=O)Nc1cccc(NS(=O)(=O)c2cccc(Br)c2)c1 [Example 86]	–	–	–	–	–	–	–	–	–	<5%	<5%	11%	<5%	<5%	<5%
COc1ccc(-c2cccc(C(=O)N(C)C)c2)cc1S(=O)(=O)Nc1cccc(NC(=O)Nc2cccc(C(=O)N(C)C)c2)c1 [Example 49]	<5%	<5%	<5%	26%	89%	92%	–	–	–	–	–	–	–	–	–
